In paper PMC4967259 (The American journal on addictions / American Academy of …, 2016):
Where two headings read alike, the source gives them in different places.

Assays:
[1] = for elimination half-life: metabolite in plasma after iv cocaine, unaffected by donepezil treatment
rats [2] = details: cited from earlier work
rodent = rodent studies, acute; cited from earlier work
Cardiovascular response = type: in vivo, human
rats [3] = details: cited from earlier work; remark: listed apart in the source
[4] = rat model of ischemic heart disease

## CN1[C@H]2CC[C@@H]1[C@@H](C(=O)O)[C@@H](OC(=O)c1ccccc1)C2 [Benzoylecgonine, benzoylecgonine]
[1]
  elimination half-life: approximately six hours

## CNC(=O)Oc1ccc2c(c1)[C@]1(C)CCN(C)[C@@H]1N2C [physostigmine]
Rats [2]; high doses of physostigmine
  cocaine-induced lethality: increased
Rats [2]; low doses of physostigmine
  cocaine-induced lethality: decreased

## COC(=O)[C@@H]1[C@H]2CC[C@@H](C[C@@H]1O)N2C [Ecgonine Methyl Ester, ecgonine methyl ester]
[1]
  elimination half-life: approximately five hours

## COc1cc2c(cc1OC)C(=O)C(CC1CCN(Cc3ccccc3)CC1)C2 (centres unmarked) [Donepezil, donepezil]
rodent
  cocaine self-administration: attenuate cocaine self-administration
Cardiovascular response; oral donepezil 5 mg daily, high-dose cocaine (0.36 mg/kg iv)
  effect on increases in blood pressure: not affected
Cardiovascular response; oral donepezil 5 mg daily, iv cocaine, data not shown
  effect on diastolic blood pressure and heart rate after cocaine: unaffected
Cardiovascular response; oral donepezil 5 mg daily, iv placebo or cocaine 0.18 and 0.36 mg/kg
  effect on peak values of blood pressure and heart rate: did not modify peak values
Cardiovascular response; oral donepezil 5 mg daily, low-dose cocaine (0.18 mg/kg iv), p < 0.001
  effect on drug-induced elevations of systolic blood pressure: attenuated
Rats [3]; [4]
  blood pressure: without affecting blood pressure
  heart rate: decreased heart rate
Rats [3]; rat, following coronary artery ligation
  heart failure and survival: prevent heart failure and improve survival

## COC(=O)[C@H]1[C@@H](OC(=O)c2ccccc2)C[C@@H]2CC[C@H]1N2C [Cocaine, cocaine]
[1]; human, in vivo, iv, 0.36 mg/kg
  Tmax: 10 min
Cardiovascular response; iv cocaine 0.18 and 0.36 mg/kg, most pronounced over the initial 30 minutes
  change in systolic blood pressure: dose-related increases
